Measurements published in ChEMBL document CHEMBL2331255, “Carbonic anhydrase inhibitors: benzenesulfonamides incorporating cyanoacrylamide moieties are low nanomolar/subnanomolar inhibitors of the tumor-associated isoforms IX and XII” (Bioorg Med Chem, 2013).

Assays:
[1] = biological target: Carbonic anhydrase 12 (Homo sapiens, UniProt O43570); assay: Inhibition of human carbonic anhydrase 12 preincubated for 15 mins by CO2 hydration stopped-flow assay
[2] = biological target: Carbonic anhydrase 9 (Homo sapiens, UniProt Q16790); assay: Inhibition of human carbonic anhydrase 9 preincubated for 15 mins by CO2 hydration stopped-flow assay
[3] = biological target: Carbonic anhydrase 2 (Homo sapiens, UniProt P00918); assay: Inhibition of human carbonic anhydrase 2 preincubated for 15 mins by CO2 hydration stopped-flow assay
[4] = biological target: Carbonic anhydrase 1 (Homo sapiens, UniProt P00915); assay: Inhibition of human carbonic anhydrase 1 preincubated for 15 mins by CO2 hydration stopped-flow assay
Carbonic anhydrase 1, sequence (P00915 whole entry): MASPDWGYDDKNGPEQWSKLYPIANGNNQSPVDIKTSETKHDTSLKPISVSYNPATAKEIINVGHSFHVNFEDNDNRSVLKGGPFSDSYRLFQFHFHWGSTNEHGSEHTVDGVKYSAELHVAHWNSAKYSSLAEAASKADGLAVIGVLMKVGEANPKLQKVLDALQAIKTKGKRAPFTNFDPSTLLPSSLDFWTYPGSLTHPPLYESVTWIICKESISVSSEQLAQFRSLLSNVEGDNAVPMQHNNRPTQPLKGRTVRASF

Carbonic anhydrase 12, sequence (O43570 whole entry): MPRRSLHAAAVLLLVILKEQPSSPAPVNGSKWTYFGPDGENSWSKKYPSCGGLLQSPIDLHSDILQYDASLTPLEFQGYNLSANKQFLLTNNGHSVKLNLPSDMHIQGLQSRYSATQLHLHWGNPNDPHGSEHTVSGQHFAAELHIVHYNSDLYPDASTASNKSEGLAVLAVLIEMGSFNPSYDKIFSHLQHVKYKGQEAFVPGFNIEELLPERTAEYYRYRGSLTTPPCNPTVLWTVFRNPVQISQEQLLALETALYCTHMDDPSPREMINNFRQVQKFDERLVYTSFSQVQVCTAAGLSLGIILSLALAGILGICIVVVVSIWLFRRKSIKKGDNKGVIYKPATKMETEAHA

| SMILES | Ki [2] | further results |
| --- | --- | --- |
| N#C/C(=C\c1ccco1)C(=O)Nc1ccc(S(N)(=O)=O)cc1 | 4.3 nM | Ki [1]: 6.3 nM; Ki [3]: 5.5 nM; Ki [4]: 6.1 nM |
| COc1ccccc1/C=C(\C#N)C(=O)Nc1ccc(S(N)(=O)=O)cc1 | 32.6 nM | Ki [1]: 0.6 nM; Ki [3]: 6.9 nM; Ki [4]: 71 nM |
| COc1cc(/C=C(\C#N)C(=O)Nc2ccc(S(N)(=O)=O)cc2)cc(OC)c1OC | 20.5 nM |  |
| COc1cc(OC)c(OC)cc1/C=C(\C#N)C(=O)Nc1ccc(S(N)(=O)=O)cc1 | 0.96 nM |  |
| COc1ccc(/C=C(\C#N)C(=O)Nc2ccc(S(N)(=O)=O)cc2)cc1OC | 21.2 nM |  |
| COc1cc(/C=C(\C#N)C(=O)Nc2ccc(S(N)(=O)=O)cc2)ccc1O | 5.4 nM |  |
| N#C/C(=C\c1ccc(O)c(O)c1)C(=O)Nc1ccc(S(N)(=O)=O)cc1 | 0.65 nM |  |
| N#C/C(=C\c1ccc(O)cc1)C(=O)Nc1ccc(S(N)(=O)=O)cc1 | 0.67 nM |  |
| CN(C)c1ccc(/C=C(\C#N)C(=O)Nc2ccc(S(N)(=O)=O)cc2)cc1 | 3.4 nM |  |
| N#C/C(=C\C=C\c1ccccc1)C(=O)Nc1ccc(S(N)(=O)=O)cc1 | 4.9 nM |  |
| N#C/C(=C\c1cccs1)C(=O)Nc1ccc(S(N)(=O)=O)cc1 | 3.7 nM |  |
| N=c1oc2ccccc2cc1C(=O)Nc1ccc(S(N)(=O)=O)cc1 | 12.8 nM |  |
| N#C/C(=N\Nc1ccccc1)C(=O)Nc1ccc(S(N)(=O)=O)cc1 | 9.5 nM |  |
| N#C/C(C(=O)Nc1ccc(S(N)(=O)=O)cc1)=C(\S)Nc1ccccc1 | 5.8 nM |  |
| CC(=O)C1=NN(c2ccccc2)/C(=C(\C#N)C(=O)Nc2ccc(S(N)(=O)=O)cc2)S1 | 0.33 nM |  |
| N#CCC(=O)Nc1ccc(S(N)(=O)=O)cc1 | 5.2 nM |  |
| N#C/C(=C\c1ccccc1Cl)C(=O)Nc1ccc(S(N)(=O)=O)cc1 | 8.9 nM |  |
| N#C/C(=C\c1ccc(Cl)cc1Cl)C(=O)Nc1ccc(S(N)(=O)=O)cc1 | 35.6 nM |  |
| N#C/C(=C\c1ccc([N+](=O)[O-])cc1)C(=O)Nc1ccc(S(N)(=O)=O)cc1 | 0.93 nM |  |
| COc1ccc(/C=C(\C#N)C(=O)Nc2ccc(S(N)(=O)=O)cc2)cc1 | 0.86 nM |  |
